The record followed here is EPA's ToxValDB 9.5 (doi:10.2903/j.efsa.2017.4988).

Molecules are shown by their SMILES. Converted amounts (≈) assume the structure as drawn. Some results are limits rather than exact numbers.

In one data set the test system is Rattus norvegicus. The note with it: for LD50: acute, mortality.
In a further data set the test system is Anas platyrhynchos. The note with it: acute; oral; unspecified; mortality.
Another data set deals with Anomia sp. The note with it: acute; duration: 96 hours; mortality.
For another data set, the system named is Apis mellifera. The settings on record: acute, mortality.
A further data set relates to Canidae. The settings on record: oral, Dog Other.
In a further data set the test system is Cyprinodon variegatus. The note with it: acute; duration: 96 hours; mortality.
Another data set deals with Daphnia magna. The note with it: chronic/long-term; duration: 21 days.
The subject of another data set is Gammaridae. The settings on record: chronic/long-term; duration: 28 days.
In the next data set the test system is Hypoaspis aculeifer. The note with it: chronic/long-term; duration: 14 days; reproduction.
For another data set, the system named is Oncorhynchus mykiss. The settings on record: chronic/long-term; duration: 89 days; mortality.
A further data set relates to Aphidius rhopalosiphi. In words: LR50; higher = less toxic. The note with it: not reported; mortality.

Regarding `CCOc1cc(C(C)(C)C)ccc1C(N)COC(=O)c1c(F)cccc1F` (stereo not given), in the data set on Rattus norvegicus, the LD50 is > 5000 mg/kg.

`CCOc1cc(C(C)(C)C)ccc1C1COC(c2c(F)cccc2F)=N1` (stereo not given) [Etoxazole]: the LD50 with Anas platyrhynchos is > 2000 mg/kg; in the data set with Apis mellifera (dermal), > 200 µg/piece; in the data set with Apis mellifera (oral, unspecified), > 200 µg/piece; in the data set on Rattus norvegicus (oral) it was > 5000 mg/kg. Further, the LC50 is 4.3 ng/mL (≈ 0.012 µM) with Anomia sp.; 1270 mg/kg-day in the data set with Colinus virginianus (acute, oral, diet, mortality); > 160 ng/mL in the data set with Cyprinodon variegatus; > 1000 mg/kg in the data set on Tagia sp. (acute, duration: 14 days, mortality). Further, the NOAEL with Canidae (chronic, duration: 1 years) was 5 mg/kg-day; in the data set with Canidae (subchronic, duration: 90 days), 5 mg/kg-day; in the data set with Rattus norvegicus (chronic, duration: 2 years), 4 mg/kg-day; in the data set with Rattus norvegicus (reproduction developmental, organ weight), 24.5 mg/kg-day. The NOEC stood at 28.6 mg/kg-day in the data set with Colinus virginianus (chronic); 0.00013 mg/L with Daphnia magna; 0.86 mg/kg in the data set on Gammaridae; 0.2 mg/kg in the data set with Hypoaspis aculeifer; 0.015 mg/L with Oncorhynchus mykiss; 5 mg/kg in the data set with Tagia sp. (chronic/long-term, duration: 56 days, reproduction). In addition, the LR50 in the data set with Aphidius rhopalosiphi was > 55 g/ha.

A word on the NOAEL: it is the highest tested level that showed no adverse finding.
